In one assay the test system is MGG4. Put plainly: Sphere-forming ability (anchorage-independent cell proliferation), MGG4. In kind it is cell-based, human. The settings on record: MGG4 (high FTSJ1 expression), 1 week, 0-5000 nM; FIG. 4B. As to the method: To verify whether the expression analysis of these gene clusters contributes to predicting the anti-cancer effect by the FTSJ1 inhibitors, the FTSJ1 gene was actually used as an example to analyze the anti-cancer effect of the FTSJ1 inhibitor PVZF2001 on human malignant brain tumor cell lines. Human malignant brain tumor cell lines MGG4, MGG8, MGG18, MGG23 were treated with stem cell medium (Neurobasal, B-27, N-2, 20 ng/mL EGF, 20 ng/mL bFGF) containing different concentrations (0 nm, 200 nM, 500 nM, 1000 NM, 2000 NM, 5000 nM) of PVZF2001 for 1 week, and anchorage-independent cell proliferation was evaluated based on sphere-forming ability.

In another assay the test system is YAP/TAZ. Kind of assay: Screening: YAP/TAZ activity reporter (8xGTIIC plasmid) assay in NUGC3 cells (luminescence % of DMSO). It counts as cell-based, human. As to conditions: NUGC3 cells, luminescence relative to DMSO.
The test system of assay [1] is 39 types of human cancer cell lines (JFCR39). Put plainly: Cell line panel (JFCR39) cell proliferation, sulforhodamine B, GI50. In kind it is cell-based. As to the method: In order to extract genes that prescribe the sensitivity and resistance with respect to the FTSJ1 inhibitors, PVZF2001 was used to proceed with the analysis with a cell line panel (JFCR39). […] The GI50 value is defined, based on the number of cells before drug exposure, as a concentration at which the increase is inhibited by 50% by drug treatment, with the increase in a sample cultured for 48 hours without drug treatment (negative control) taken as 100%. In order to extract the target gene clusters, a COMPARE analysis was first performed using gene expression and the Log GI50 values in all of the cell lines. The gene clusters of SEQ ID NOs: 14 to 28 were then identified as FTSJ1 inhibitor resistance-related genetic markers, while the gene clusters of SEQ ID NOs: 34 to 47 were identified as FTSJ1 inhibitor sensitive-related genetic markers. […] The gene clusters of SEQ ID NOs: 29 to 33 were then identified as FTSJ1 inhibitor resistance-related genetic markers, while the gene clusters of SEQ ID NOs: 48 to 56 were identified as FTSJ1 inhibitor sensitive-related genetic markers. Using these genetic markers, a database of gene expression information (TCGA) obtained from patient samples was analyzed. […] That is, the results reveal that the FTSJ1 gene expression level itself also represents sensitivity and resistance with respect to the FTSJ1 inhibitors (SEQ ID NO: 57).

For `CC(C)c1cc(C(C)C)c(S(=O)(=O)CC2CC(C)(C)CC(C)(C)C2)c(C(C)C)c1` [PVZF2001], the “anchorage-independent cell proliferation (sphere-forming ability)” value in the assay with MGG4 is recorded as “showed proliferation inhibition at low concentrations”. Besides, the figures for the “8×GTIIC” value in the assay on YAP/TAZ (5 μM) and with YAP/TAZ (10 μM) were 40.38% and 20.02%, respectively. Moreover, the “sensitivity / resistance of cell line (Log GI50, FIG. 4A)” value in assay [1] (DMS114, 48 hours) was “high sensitivity”; in assay [1] (NCI-H23, 48 hours) it was “high resistance”; in assay [1] (NCI-H522, 48 hours), “high sensitivity”; in assay [1] (SF-539, 48 hours) it was “high sensitivity”; in assay [1] (SNB-75, 48 hours) it was “high sensitivity”; in assay [1] (SNB-78, 48 hours), “high resistance”. Also, in assay [1] (U251, 48 hours), the “sensitivity / resistance of cell line (Log GI50, FIG. 4A)” value is recorded as “high sensitivity”.
